SMILES strings stand for the structures. pIC50: −log10 of the molar value.

Chain of Platelet-derived growth factor receptor alpha (P16234 whole entry): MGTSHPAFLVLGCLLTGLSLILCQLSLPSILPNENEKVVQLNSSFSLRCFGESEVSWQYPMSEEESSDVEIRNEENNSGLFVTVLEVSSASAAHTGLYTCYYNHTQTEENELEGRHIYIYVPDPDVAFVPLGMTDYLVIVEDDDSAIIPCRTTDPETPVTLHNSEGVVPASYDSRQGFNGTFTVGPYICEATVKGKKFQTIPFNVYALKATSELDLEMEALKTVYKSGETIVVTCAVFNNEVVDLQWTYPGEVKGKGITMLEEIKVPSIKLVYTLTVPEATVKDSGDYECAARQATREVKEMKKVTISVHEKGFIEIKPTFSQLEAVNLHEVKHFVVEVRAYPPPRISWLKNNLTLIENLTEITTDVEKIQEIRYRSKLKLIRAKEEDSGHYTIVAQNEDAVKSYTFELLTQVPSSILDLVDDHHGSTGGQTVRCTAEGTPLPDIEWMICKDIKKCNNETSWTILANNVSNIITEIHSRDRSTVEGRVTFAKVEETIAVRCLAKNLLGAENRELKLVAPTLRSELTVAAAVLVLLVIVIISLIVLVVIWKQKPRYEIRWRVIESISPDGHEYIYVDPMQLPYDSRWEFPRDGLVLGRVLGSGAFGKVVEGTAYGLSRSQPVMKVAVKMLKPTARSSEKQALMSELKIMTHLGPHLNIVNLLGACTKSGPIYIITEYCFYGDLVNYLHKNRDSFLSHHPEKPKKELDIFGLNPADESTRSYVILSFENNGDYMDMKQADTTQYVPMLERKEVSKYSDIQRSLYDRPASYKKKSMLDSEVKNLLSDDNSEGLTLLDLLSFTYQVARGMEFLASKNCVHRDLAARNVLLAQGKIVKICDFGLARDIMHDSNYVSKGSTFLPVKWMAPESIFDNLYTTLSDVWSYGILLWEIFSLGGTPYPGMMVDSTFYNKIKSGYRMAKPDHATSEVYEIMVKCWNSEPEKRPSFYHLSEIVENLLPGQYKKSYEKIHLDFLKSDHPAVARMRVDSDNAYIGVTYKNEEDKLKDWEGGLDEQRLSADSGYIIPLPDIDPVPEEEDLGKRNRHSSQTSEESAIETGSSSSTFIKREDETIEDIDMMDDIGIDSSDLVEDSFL

The assay concerns the target Platelet-derived growth factor receptor alpha (Homo sapiens, UniProt P16234). As to the kind of experiment: PDGFRα Kinase Assay. As for the experimental part: The PDGFRα enzyme assays were conducted per the manufacturer's directions (Promega PDGFRα Kinase Enzyme System and ADP Glo Assay Cat #V8011). […] 20 ng of purified PDGFRα protein was added to the test article. […] ADP-Glo was added to halt the kinase reaction and deplete the remaining ATP. Kinase detection reagent, containing luciferase and luciferin, was used to convert the ADP signal into luminescence. Luminescence was measured using a Molecular Devices Spectramax ID5 and compared to a standard curve to determine kinase activity. IC50s were calculated using Prism 9, Graphpad software.
In general, pIC50 refers to −log10 of the IC50, conventionally taken in molar units. Consider `CN(CCCN(C)c1cnn2cc(-c3cnn(C)c3)ccc12)c1ncc(Cc2ccccc2)cn1`, for which the pIC50 is less than 5.00.
Under `Cn1cc(-c2ccn3c(N4CCN(C(=O)OC(C)(C)C)CC4)cnc3n2)cn1` [US20250129067, Compound 87] stands 5.23.
Under `Cn1cc(-c2ccc3c(N4CCN(c5ncc(C(O)Cc6ccccc6)cn5)CC4)cnn3c2)cn1` (stereo not drawn) [US20250129067, Compound 167] stands 6.97.

Source of the values: BindingDB's records for patent US20250129067 (Progentos Therapeutics, 2025).
